The values that follow come from patent US12172983B2, “EGFR inhibitors” (Blueprint Medicines Corporation, priority 2019, dated 2024).

The target in one experiment is T1, EGFR (L858R T790M C797S) (Homo sapiens, UniProt P00533, C797S/L858R/T790M).
T1 construct: purchased SignalChem E10-122VG
The experiment is described as follows: Biochemical EGFR inhibition assay (Caliper mobility shift), EGFR LRTMCS mutant. The note with it: inhibitory activity against EGFR LRTMCS mutant; apparent IC50; read-out: Ext Enz LRTMCS. An outline of the steps:
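Each enzyme was allowed to phosphorylate 10–20% of its peptide at 25° C. before EDTA (35 mM) quench. Separated substrate and product peaks were measured by mobility shift, giving apparent IC50 values.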

Experiment [1] concerns phosphorylation of EGFR (Tyr1068) in NCI-H1975 cell line that harbors the EGFR L858R T790M mutations. The experiment is described as follows: NCI-H1975 pEGFR AlphaLISA assay. In kind it is cell-based. The note with it: 4-5 hours incubation, read-out: Ext pEGFR H1975. An outline of the steps: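 Phospho-EGFR Tyr1068 AlphaLISA readout: lysates taken from compound-treated H1975 cells (L858R T790M EGFR) after a 4-5 h exposure at 37 °C. Cells had adhered overnight beforehand. IC50 derived by plotting % pEGFR inhibition against log compound concentration.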
On the technique in general: Alpha assays give light when donor and acceptor beads are brought close together.

Where [2] appears, read: Homo sapiens, NCI-H1975, inhibition of phosphorylation of mutant EGFR in NCI-H1975 cells.

Structures are written as SMILES. Where two headings read alike, the source gives them in different places.

T1 sequence (P00533 25-1210 T790M/C797S/L858R): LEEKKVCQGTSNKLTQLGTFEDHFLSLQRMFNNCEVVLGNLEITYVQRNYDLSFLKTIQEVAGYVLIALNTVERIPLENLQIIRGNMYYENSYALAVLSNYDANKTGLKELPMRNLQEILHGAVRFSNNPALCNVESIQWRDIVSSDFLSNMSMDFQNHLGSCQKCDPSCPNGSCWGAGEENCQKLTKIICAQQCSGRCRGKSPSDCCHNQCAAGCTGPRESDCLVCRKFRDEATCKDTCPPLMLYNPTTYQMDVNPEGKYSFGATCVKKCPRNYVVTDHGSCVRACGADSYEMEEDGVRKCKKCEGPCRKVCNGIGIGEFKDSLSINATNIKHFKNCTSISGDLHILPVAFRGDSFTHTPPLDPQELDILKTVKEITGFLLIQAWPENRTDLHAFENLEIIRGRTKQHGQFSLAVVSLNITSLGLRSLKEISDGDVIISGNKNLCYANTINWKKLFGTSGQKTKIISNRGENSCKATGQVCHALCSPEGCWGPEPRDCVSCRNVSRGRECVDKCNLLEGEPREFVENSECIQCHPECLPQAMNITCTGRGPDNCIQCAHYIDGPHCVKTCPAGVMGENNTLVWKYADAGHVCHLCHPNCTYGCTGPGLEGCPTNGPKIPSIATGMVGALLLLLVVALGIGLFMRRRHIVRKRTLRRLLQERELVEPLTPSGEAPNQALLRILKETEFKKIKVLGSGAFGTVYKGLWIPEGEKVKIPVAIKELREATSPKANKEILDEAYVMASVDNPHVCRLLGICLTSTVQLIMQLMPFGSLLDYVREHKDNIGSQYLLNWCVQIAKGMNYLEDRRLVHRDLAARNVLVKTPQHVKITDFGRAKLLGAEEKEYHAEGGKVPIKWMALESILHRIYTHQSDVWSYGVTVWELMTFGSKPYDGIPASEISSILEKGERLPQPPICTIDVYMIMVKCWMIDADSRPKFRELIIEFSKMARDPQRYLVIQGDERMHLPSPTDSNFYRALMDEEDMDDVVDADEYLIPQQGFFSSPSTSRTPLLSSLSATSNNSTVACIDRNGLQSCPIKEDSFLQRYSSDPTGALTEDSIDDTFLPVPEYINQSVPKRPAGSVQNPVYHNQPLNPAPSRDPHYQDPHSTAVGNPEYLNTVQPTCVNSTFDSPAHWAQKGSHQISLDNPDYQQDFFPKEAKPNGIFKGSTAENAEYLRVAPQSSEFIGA

For the molecule `CCS(=O)(=O)CC1CN(c2ccc(C)c3cc(Nc4ccnc(N5C[C@@H](F)[C@@H](O)C(C)(C)C5)n4)ncc23)C1` (single isomer, unassigned) [Compound 60, (4S,5R)-1-{4-[(8-{3-[(ethanesulfonyl)methyl]azetidin-1-yl}-5-methylisoquinolin-3-yl)amino]pyrimidin-2-yl}-5-fluoro-3,3-dimethylpiperidin-4-ol or (4R,5S)-1-{4-[(8-{3-[(ethanesulfonyl)methyl]azetidin-1-yl}-5-methylisoquinolin-3-yl)amino]pyrimidin-2-yl}-5-fluoro-3,3-dimethylpiperidin-4-ol], the results for the IC50 (at EGFR (L858R T790M C797S); in experiment [1] (setting [2])) were ≤ 15 nM and 20.1 to 30 nM, respectively.
Consider `CC(C)c1ncc(N2C[C@H](CS(C)(=O)=O)[C@H]2C)c2cnc(Nc3ccnc(N4CC[C@@](C)(O)[C@@H](F)C4)n3)cc12` (single isomer, unassigned) [Compound 138], for which the IC50 on EGFR (L858R T790M C797S) is ≤ 15 nM; in experiment [1] (setting [2]) it was ≤ 10 nM.
Consider `COCCO[C@@H]1CCN(c2nccc(Nc3cc4c(F)ccc(N5C[C@H](CS(C)(=O)=O)[C@H]5C)c4cn3)n2)C[C@@H]1F` (single isomer, unassigned) [Compound 217], for which the IC50 on EGFR (L858R T790M C797S) was ≤ 15 nM; in experiment [1] (setting [2]) it was 20.1 to 30 nM.
For `[2H]C([2H])([2H])O[C@@H]1CCN(c2nccc(Nc3cc4c(C(C)C)ncc(N5C[C@H](CS(C)(=O)=O)[C@H]5C)c4cn3)n2)C[C@@H]1F` (single isomer, unassigned) [Compound 161, N-{2-[(3S,4R)-3-fluoro-4-(^2H3)methoxypiperidin-1-yl]pyrimidin-4-yl}-8-[(2R,3S)-3-(methanesulfonylmethyl)-2-methylazetidin-1-yl]-5-(propan-2-yl)-2,6-naphthyridin-3-amine or N-{2-[(3R,4S)-3-fluoro-4-(^2H3)methoxypiperidin-1-yl]pyrimidin-4-yl}-8-[(2R,3S)-3-(methanesulrfonylmethyl)-2-methylazetidin-1-yl]-5-(propan-2-yl)-2,6-naphthyridin-3-amine] the same measures were ≤ 15 nM and ≤ 10 nM.
For `CC1(C)CN(c2nccc(Nc3cc4cccc(N5CC(CS(C)(=O)=O)C5)c4cn3)n2)CC(F)(F)[C@@H]1O` (single isomer, unassigned) [Compound 34, (4R)-3,3-difluoro-1-[4-({8-[3-(methanesulfonylmethyl)azetidin-1-yl]isoquinolin-3-yl}amino)pyrimidin-2-yl]-5,5-dimethylpiperidin-4-ol or (4S)-3,3-difluoro-1-[4-({8-[3-(methanesulfonylmethyl)azetidin-1-yl]isoquinolin-3-yl}amino)pyrimidin-2-yl]-5,5-dimethylpiperidin-4-ol] the same measures were ≤ 15 nM and 10.1 to 20 nM.
`CC(C)c1ccc(N2CC(CS(C)(=O)=O)C2)c2cnc(Nc3ccnc(N4C[C@H]5COC[C@H]5C4)n3)cc12` [Compound 10, N-{2-[(3aR,6aS)-hexahydro-1H-furo[3,4-c]pyrrol-5-yl]pyrimidin-4-yl}-8-[3-(methanesulfonylmethyl)azetidin-1-yl]-5-(propan-2-yl)isoquinolin-3-amine]: the IC50 on EGFR (L858R T790M C797S) was ≤ 15 nM; in experiment [1] (setting [2]) it was 30.1 to 50 nM.
As for `CC(C)c1ccc(N2C[C@H](CS(C)(=O)=O)[C@H]2C)c2cnc(Nc3ccnc(N4CCC(N)C(F)(F)C4)n3)cc12` (single isomer, unassigned) [Compound 152, N-(2-((R)-4-amino-3,3-difluoropiperidin-1-yl)pyrimidin-4-yl)-5-isopropyl-8-((2R,3S)-2-methyl-3-(methylsulfonylmethyl)azetidin-1-yl(isoquinolin-3-amine or N-(2-((S)-4-amino-3,3-difluoropiperidin-1-yl)pyrimidin-4-yl)-5-isopropyl-8-((2R,3S)-2-methyl-3-((methylsulfonyl)methyl)azetidin-1-yl)isoquinolin-3-amine], the IC50 was ≤ 15 nM on EGFR (L858R T790M C797S) and ≤ 10 nM in experiment [1] (setting [2]).
For `CC(C)c1ccc(N2CC(CS(=O)(=O)C3CN(C)C3)C2)c2cnc(Nc3ccnc(N4CC[C@@H](O)[C@@](C)(F)C4)n3)cc12` (single isomer, unassigned) [Compound 238] the same measures were ≤ 15 nM and ≤ 10 nM.
Take `CC(C)c1ccc(N2C[C@H](CS(C)(=O)=O)[C@H]2C)c2cnc(Nc3ccnc(N4CC[C@@H](OCCN(C)C)C(F)(F)C4)n3)cc12` (single isomer, unassigned) [Compound 305, N-{2-[(4S)-4-[2-(dimethylamino)ethoxy]-3,3-difluoropiperidin-1-yl]pyrimidin-4-yl}-8-[(2R,3S)-3-(methanesulfonylmethyl)-2-methylazetidin-1-yl]-5-(propan-2-yl)isoquinolin-3-amine or N-{2-[(4R)-4-[2-(dimethylamino)ethoxy]-3,3-difluoropiperidin-1-yl]pyrimidin-4-yl}-8-[(2R,3S)-3-(methanesulfonylmethyl)-2-methylazetidin-1-yl]-5-(propan-2-yl)isoquinolin-3-amine]: the IC50 was ≤ 15 nM at EGFR (L858R T790M C797S) and ≤ 10 nM in experiment [1] (inhibition of phosphorylation of mutant EGFR in NCI-H1975 cells).
`CO[C@@H]1CCN(c2nccc(Nc3cc4c(C(C)C)ccc(N5C[C@H](CS(C)(=O)=O)[C@H]5C)c4cn3)n2)C[C@H]1CO` (single isomer, unassigned) [Compound 174, [(3S,4R)-1-[4-({8-[(2R,3S)-3-(methanesulfonylmethyl)-2-methylazetidin-1-yl]-5-(propan-2-yl)isoquinolin-3-yl}amino)pyrimidin-2-yl]-4-methoxypiperidin-3-yl]methanol or [(3R,4S)-1-[4-({8-[(2R,3S)-3-(methanesulfonylmethyl)-2-methylazetidin-1-yl]-5-(propan-2-yl)isoquinolin-3-yl}amino)pyrimidin-2-yl]-4-methoxypiperidin-3-yl]methanol]: the IC50 on EGFR (L858R T790M C797S) was ≤ 15 nM; in experiment [1] (setting [2]), 10.1 to 20 nM.
For `COC1CCN(c2nccc(Nc3cc4c(C(C)C)ccc(N5CC(CS(C)(=N)=O)C5)c4cn3)n2)CC1` (single isomer, unassigned) [Compound 15, (S)-imino((1-(5-isopropyl-3-((2-(4-methoxypiperidin-1-yl)pyrimidin-4-yl)amino)isoquinolin-8-yl)azetidin-3-yl)methyl)(methyl)-λ^6-sulfanone or (R)-imino((1-(5-isopropyl-3-((2-(4-methoxypiperidin-1-yl)pyrimidin-4-yl)amino)isoquinolin-8-yl)azetidin-3-yl)methyl)(methyl)-λ^6-sulfanone] the same measures were ≤ 15 nM and 30.1 to 50 nM.
The like results for `[2H]C([2H])([2H])O[C@@H]1CCN(c2nccc(Nc3cc4c(C(C)C)cnc(N5C[C@H](CS(C)(=O)=O)[C@H]5C)c4cn3)n2)C[C@@H]1F` (single isomer, unassigned) [Compound 284] were, in that order, ≤ 15 nM and ≤ 10 nM.
